Laboratory results from ChEMBL document CHEMBL1147725, “Identification and biological characterization of 6-aryl-7-isopropylquinazolinones as novel TRPV1 antagonists that are effective in models of chronic pain” (J Med Chem, 2006).

Biological target: Transient receptor potential cation channel subfamily V member 1 (Homo sapiens, UniProt Q8NER1)
Assay: Inhibition of calcium influx evoked by capsaicin in human TRPV1 expressing cells by fluorescence assay
Format: functional

Chain of Transient receptor potential cation channel subfamily V member 1 (Q8NER1 whole entry): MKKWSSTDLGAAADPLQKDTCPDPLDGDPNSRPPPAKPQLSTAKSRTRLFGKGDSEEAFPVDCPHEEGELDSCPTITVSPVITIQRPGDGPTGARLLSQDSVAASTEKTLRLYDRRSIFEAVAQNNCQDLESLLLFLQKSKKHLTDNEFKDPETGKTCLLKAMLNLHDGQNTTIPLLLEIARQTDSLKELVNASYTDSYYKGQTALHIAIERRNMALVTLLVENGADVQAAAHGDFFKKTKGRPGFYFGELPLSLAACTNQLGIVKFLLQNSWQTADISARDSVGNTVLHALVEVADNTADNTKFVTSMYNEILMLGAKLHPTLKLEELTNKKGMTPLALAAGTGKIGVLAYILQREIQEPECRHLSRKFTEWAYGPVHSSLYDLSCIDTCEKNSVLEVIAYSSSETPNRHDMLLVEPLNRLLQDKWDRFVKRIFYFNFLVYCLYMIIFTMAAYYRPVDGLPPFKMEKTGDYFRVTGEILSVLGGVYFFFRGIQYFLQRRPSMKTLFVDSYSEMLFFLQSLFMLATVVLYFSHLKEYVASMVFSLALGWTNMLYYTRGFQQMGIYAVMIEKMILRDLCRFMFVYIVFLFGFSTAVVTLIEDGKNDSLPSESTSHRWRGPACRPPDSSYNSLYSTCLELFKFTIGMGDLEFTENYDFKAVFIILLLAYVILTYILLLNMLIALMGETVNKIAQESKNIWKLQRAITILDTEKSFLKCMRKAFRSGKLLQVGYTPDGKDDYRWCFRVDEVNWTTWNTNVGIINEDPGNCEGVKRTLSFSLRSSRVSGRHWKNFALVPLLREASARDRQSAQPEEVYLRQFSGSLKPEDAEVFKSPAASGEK

CCCCOc1cc(-c2cc3c(=O)[nH]c(C)nc3cc2C(C)C)ccc1Cl
IC50: 82 nM

CCc1nc2cc(C(C)C)c(-c3ccc(Cl)cc3)cc2c(=O)[nH]1
IC50: > 1000 nM
